In US20250263753A1, “BRIDGED CYCLE-BASED INHIBITORS OF DNA-DEPENDENT PROTEIN KINASE AND COMPOSITIONS AND APPLICATION IN GENE EDITING” (Juno Therapeutics, Inc., priority 2023, published 2025) one finds IC50 data, which are given here for 11 compounds.

Where two headings read alike, the source gives them in different places.

One test deals with DNA-PK (Homo sapiens (Human), UniProt P78527). As to the kind of experiment: DNA-PK biochemical assay (Reaction Biology HotSpot kinase assay, 10 μM ATP). An outline of the steps:
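Radiometric 33P-ATP kinase reaction in 20 mM Hepes pH 7.5, 10 mM MgCl2, 1 mM EGTA, 2 mM DTT, 1% DMSO. Compound preincubated with kinase and substrate 20 min at room temperature, then reaction run 2 h at room temperature after ATP addition. Activity read by P81 filter binding.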

Another test has as its target ATM (Homo sapiens (Human), UniProt Q13315). Description: ATM biochemical assay (Reaction Biology HTRF kinase assay, 10 μM ATP). The gist of the method:
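HTRF kinase assay with N-terminal GST-tagged human p53 (aa2-393) substrate, 10 μM ATP, in 50 mM Hepes pH 7.5, 10 mM MnCl2, 1% DMSO. Enzyme preincubated with compound 30 min, reaction 2 h at room temperature. pS15 phosphorylation read by Eu-cryptate anti-p53-pS15/anti-GST-d2 HTRF (615/665 nm).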

Another test addresses PI3Kβ (Homo sapiens (Human), UniProt P42338). Description: PI3Kβ biochemical assay (Reaction Biology ADP-Glo). The settings on record: class symbol. As to the method: Phosphoinositide 3-kinase R (PI3KP) Biochemical Assay using Reaction Biology's ADP-Glo Assay Platform:
Step 1: Lipid kinases: Reaction Biology Corporation (RBC) currently offers lipid kinases in ADP-Glo format
Step 2: Assay Description Assay principle: The kinase reactions utilize ATP and produce ADP as a byproduct. The ADP production is quantified by ADP-Glo luminescence detection. This is a 3-step reaction: First, the kinase reaction with lipid substrate is carried out in the presence of ATP, and the reaction is quenched and depleted remaining ATP with ADP-Glo™ reagent, and then finally ADP is converted to ATP which is measured using a luciferase/luciferin reaction.
Step 3: Assay Procedure: 1. Prepare kinase in freshly prepared Reaction Buffer, kinase without substrate is delivered to background wells; 2. Deliver substrate into the kinase solution and gently mix, deliver to assay wells; 3. Deliver compounds in 100% DMSO into the kinase reaction mixture by Acoustic technology (Echo550; nanoliter range), incubate for 20 min at room temperature; 4. Deliver ATP into the reaction mixture to initiate the reaction; 5. Incubate for 60 min at 30° C.; 6. Quench the reaction with ADP-Glo reagent and incubate for 40 min; 7. Add Detection Mixture and incubate for 30 min; 8. Measure luminescence.
Step 4: Data Analysis: The luminescence is converted into M ADP production based on ADP standard curves. The nonlinear regression to obtain the standard curve and IC50 values are performed using Graphpad Prism software.
(ADP-Glo turns the ADP formed in a reaction into a luminescent signal.)

In test [1] the target is PI3Kα (His-PIK3CA/PIK3R1, p110 alpha/p85 alpha) (Homo sapiens (Human), UniProt P42336). As to the kind of experiment: PI3Kα biochemical assay (HTRF/FRET probe). The class given is binding. The settings on record: class symbol. As to the method:
Phosphoinositide 3-kinase α (PI3Kα) Biochemical Assay: A solution was prepared containing 0.2 nM Anti-HIS-Terbium (Cisbio, 64CUSTAZU), 3.7 nM designed-probe and 1.0 nM His-PIK3CA/PIK3R1 (p110 alpha/p85 alpha) in FRET Buffer (20 mM HEPES, 10 mM MgCl2, 0.015% Brij-35, 4 mM DTT, 0.05 mg/mL BSA).

Test [2] concerns the target PI3Kδ (His-PIK3CD/PIK3R1, p110 delta/p85 alpha) (Homo sapiens (Human), UniProt O00329). Description: PI3Kδ biochemical assay (HTRF/FRET probe). The class given is binding. The following applies: class symbol. The procedure: Phosphoinositide 3-kinase (PI3K) Biochemical Assay: A solution was prepared containing 0.2 nM Anti-HIS-Terbium (Cisbio, 64CUSTAZU), 40 nM designed-probe and 1.0 nM His-PIK3CD/PIK3R1 (p110 delta/p85 alpha) in FRET Buffer (20 mM HEPES, 10 mM MgCl2, 0.015% Brij-35, 4 mM DTT, 0.05 mg/mL BSA).
(TR-FRET usually uses a lanthanide donor and a delayed reading to cut background.)

The mark [3] stands for this setting: read-out: DNA-PK HotSpot 10 μM ATP IC50, class symbol.

PI3Kα (His-PIK3CA/PIK3R1, p110 alpha/p85 alpha), sequence (P42336 whole entry, species assumed): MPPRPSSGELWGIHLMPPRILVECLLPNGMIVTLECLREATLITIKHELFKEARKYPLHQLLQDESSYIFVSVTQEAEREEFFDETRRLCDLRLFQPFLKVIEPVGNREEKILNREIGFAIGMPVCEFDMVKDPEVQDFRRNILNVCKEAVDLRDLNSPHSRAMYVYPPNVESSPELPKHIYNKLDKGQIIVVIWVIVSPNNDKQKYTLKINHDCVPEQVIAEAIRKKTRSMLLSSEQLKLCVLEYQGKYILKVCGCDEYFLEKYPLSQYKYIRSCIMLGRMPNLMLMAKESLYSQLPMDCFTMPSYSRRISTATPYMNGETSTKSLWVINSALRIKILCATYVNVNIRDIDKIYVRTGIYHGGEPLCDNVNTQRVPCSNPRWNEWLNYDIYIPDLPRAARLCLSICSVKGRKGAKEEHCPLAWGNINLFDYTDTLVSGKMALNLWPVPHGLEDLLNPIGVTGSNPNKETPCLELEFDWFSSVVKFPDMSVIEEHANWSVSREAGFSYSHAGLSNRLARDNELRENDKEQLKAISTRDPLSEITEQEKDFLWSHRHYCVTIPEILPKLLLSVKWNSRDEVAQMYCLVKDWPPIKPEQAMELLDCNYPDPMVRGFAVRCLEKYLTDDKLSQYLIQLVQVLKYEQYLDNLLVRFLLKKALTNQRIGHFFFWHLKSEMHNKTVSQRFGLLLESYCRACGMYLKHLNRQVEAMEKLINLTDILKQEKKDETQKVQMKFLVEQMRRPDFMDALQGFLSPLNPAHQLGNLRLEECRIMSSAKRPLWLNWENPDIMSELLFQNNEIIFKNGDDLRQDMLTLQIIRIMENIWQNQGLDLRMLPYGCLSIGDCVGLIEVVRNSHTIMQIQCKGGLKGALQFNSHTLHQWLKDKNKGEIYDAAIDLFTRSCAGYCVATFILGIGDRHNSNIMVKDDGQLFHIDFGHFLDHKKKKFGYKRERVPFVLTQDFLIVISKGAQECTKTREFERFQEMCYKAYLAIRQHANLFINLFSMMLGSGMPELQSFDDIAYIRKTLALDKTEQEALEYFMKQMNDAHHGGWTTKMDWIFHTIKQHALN
PI3Kα (His-PIK3CA/PIK3R1, p110 alpha/p85 alpha), sequence (P27986 whole entry partner, species assumed): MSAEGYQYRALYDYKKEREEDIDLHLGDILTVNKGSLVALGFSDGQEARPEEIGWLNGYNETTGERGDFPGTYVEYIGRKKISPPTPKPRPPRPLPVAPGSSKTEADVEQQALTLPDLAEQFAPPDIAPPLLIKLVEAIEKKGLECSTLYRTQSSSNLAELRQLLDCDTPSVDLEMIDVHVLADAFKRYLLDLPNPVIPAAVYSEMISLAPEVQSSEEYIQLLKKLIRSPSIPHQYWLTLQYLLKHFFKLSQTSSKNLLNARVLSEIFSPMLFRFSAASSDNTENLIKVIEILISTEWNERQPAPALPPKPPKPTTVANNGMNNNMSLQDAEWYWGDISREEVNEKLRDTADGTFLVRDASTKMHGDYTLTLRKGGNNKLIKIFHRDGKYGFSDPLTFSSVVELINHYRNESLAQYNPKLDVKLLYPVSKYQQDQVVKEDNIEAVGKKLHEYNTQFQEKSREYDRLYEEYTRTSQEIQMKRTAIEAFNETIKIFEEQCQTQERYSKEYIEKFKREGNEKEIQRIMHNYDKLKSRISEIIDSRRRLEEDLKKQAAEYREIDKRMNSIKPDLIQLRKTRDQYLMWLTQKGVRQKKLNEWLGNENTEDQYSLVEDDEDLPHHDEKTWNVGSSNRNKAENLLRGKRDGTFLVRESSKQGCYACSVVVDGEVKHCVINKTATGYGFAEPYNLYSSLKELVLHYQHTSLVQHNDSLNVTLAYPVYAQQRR
PI3Kβ, sequence (P42338 whole entry): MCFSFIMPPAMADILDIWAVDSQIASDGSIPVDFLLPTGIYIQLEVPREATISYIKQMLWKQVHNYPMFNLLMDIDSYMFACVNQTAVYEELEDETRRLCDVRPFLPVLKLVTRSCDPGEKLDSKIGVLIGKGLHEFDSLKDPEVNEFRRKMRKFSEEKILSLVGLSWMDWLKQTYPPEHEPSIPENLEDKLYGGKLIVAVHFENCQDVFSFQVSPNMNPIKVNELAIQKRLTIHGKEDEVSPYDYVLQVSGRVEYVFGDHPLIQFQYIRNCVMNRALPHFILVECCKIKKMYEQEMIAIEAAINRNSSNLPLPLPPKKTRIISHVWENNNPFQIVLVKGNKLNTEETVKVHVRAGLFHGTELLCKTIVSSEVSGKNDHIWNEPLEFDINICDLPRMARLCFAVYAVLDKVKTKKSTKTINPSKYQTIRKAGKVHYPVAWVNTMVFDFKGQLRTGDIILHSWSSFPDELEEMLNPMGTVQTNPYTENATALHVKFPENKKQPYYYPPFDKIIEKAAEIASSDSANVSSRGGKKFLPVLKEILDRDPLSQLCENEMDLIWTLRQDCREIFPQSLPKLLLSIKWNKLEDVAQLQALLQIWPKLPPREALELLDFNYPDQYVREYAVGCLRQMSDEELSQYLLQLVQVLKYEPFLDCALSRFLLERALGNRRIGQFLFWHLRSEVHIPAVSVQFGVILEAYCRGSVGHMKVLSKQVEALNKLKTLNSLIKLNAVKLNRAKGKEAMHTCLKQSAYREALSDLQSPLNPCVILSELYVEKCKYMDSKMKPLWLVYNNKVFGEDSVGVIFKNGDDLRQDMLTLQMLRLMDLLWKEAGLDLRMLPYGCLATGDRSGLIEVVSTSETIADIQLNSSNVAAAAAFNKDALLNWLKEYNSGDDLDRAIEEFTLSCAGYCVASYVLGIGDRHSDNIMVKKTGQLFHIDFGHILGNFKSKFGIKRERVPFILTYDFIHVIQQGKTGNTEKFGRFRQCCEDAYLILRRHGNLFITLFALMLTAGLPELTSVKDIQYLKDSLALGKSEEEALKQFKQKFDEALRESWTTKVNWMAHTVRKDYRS
PI3Kβ, sequence (P27986 whole entry partner): as the sequence (P27986 whole entry partner, species assumed) above
PI3Kδ (His-PIK3CD/PIK3R1, p110 delta/p85 alpha), sequence (O00329 whole entry, species assumed): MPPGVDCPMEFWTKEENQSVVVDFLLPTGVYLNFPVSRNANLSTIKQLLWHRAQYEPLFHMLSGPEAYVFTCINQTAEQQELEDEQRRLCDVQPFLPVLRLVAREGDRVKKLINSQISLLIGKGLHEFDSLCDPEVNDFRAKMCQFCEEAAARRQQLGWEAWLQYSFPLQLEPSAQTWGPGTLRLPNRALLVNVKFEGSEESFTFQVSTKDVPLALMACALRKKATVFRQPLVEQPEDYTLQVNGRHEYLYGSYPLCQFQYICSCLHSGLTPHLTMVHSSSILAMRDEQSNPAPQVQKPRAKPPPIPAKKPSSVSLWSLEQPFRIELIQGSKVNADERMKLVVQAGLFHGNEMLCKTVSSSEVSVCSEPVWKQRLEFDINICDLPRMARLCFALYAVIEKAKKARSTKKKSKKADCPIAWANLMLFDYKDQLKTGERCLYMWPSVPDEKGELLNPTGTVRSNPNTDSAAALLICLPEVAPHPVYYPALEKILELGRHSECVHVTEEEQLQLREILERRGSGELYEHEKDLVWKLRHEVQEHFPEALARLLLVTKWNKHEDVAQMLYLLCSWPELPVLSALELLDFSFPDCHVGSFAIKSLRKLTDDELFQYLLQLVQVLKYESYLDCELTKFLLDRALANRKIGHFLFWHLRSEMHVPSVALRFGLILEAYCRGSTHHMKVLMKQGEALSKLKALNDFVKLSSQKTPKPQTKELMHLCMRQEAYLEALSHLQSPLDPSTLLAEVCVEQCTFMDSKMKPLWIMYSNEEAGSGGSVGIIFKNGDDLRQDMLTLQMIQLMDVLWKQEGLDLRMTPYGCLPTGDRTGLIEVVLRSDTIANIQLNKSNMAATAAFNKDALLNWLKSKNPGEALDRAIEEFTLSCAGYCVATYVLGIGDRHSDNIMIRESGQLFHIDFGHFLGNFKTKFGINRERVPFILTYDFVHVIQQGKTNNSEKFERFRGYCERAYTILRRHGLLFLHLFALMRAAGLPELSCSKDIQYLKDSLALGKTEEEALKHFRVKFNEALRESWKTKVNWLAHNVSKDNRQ
PI3Kδ (His-PIK3CD/PIK3R1, p110 delta/p85 alpha), sequence (P27986 whole entry partner, species assumed): as the sequence (P27986 whole entry partner, species assumed) above

As to `Cc1cc2c(cc1Nc1ncc3c(n1)n(C14CCC(O)(CC1)C4)c(=O)n3C)OCO2` [Compound 2, 9-(4-hydroxybicyclo[2.2.1]heptan-1-yl)-7-methyl-2-((6-methylbenzo[d][1,3]dioxol-5-yl)amino)-7,9-dihydro-8H-purin-8-one], the IC50 on DNA-PK (setting [3]) is under 1 nM; against ATM (class symbol) it was 100 to 1000 nM; against PI3Kβ, at least 1000 nM; in test [1] it was at least 1000 nM; in test [2] it was at least 1000 nM.

In the case of `COC12CCC(n3c(=O)n(C)c4cnc(Nc5cn6ncnc6cc5C)nc43)(CC1)C2` [Compound 6, 9-(4-methoxybicyclo[2.2.1]heptan-1-yl)-7-methyl-2-((7-methyl-[1,2,4]triazolo[1,5-a]pyridin-6-yl)amino)-7,9-dihydro-8H-purin-8-one], the IC50 is under 1 nM at DNA-PK (setting [3]); 10 to 100 nM on ATM (class symbol); 100 to 1000 nM at PI3Kβ; 100 to 1000 nM in test [1]; at least 1000 nM in test [2].

Take `COC12CCC(n3c(=O)n(C)c4cnc(Nc5cc6c(cc5C)OCO6)nc43)(CC1)C2` [Compound 7, 9-(4-methoxybicyclo[2.2.1]heptan-1-yl)-7-methyl-2-((6-methylbenzo[d][1,3]dioxol-5-yl)amino)-7,9-dihydro-8H-purin-8-one]: the IC50 on DNA-PK (setting [3]) was under 1 nM; against ATM (class symbol), 100 to 1000 nM; on PI3Kβ, at least 1000 nM; in test [1], 100 to 1000 nM; in test [2], at least 1000 nM.

As to `Cc1cc2ncccc2cc1Nc1ncc2c(n1)n(C13CC(F)(C1)C3)c(=O)n2C` [Compound 11, 9-(3-fluorobicyclo[1.1.1]pentan-1-yl)-7-methyl-2-((7-methylquinolin-6-yl)amino)-7,9-dihydro-8H-purin-8-one], the IC50 is under 1 nM at DNA-PK (setting [3]); 10 to 100 nM on ATM (class symbol); 100 to 1000 nM at PI3Kβ; 100 to 1000 nM in test [1]; at least 1000 nM in test [2].

Take `Cc1cc2ncnn2cc1Nc1ncc2c(n1)n(C13CC(F)(C1)C3)c(=O)n2C` [Compound 12, 9-(3-fluorobicyclo[1.1.1]pentan-1-yl)-7-methyl-2-((7-methyl-[1,2,4]triazolo[1,5-a]pyridin-6-yl)amino)-7,9-dihydro-8H-purin-8-one]: the IC50 on DNA-PK (setting [3]) was under 1 nM; at ATM (class symbol), 100 to 1000 nM; on PI3Kβ it was at least 1000 nM; in test [1] it was at least 1000 nM; in test [2], at least 1000 nM.

For `Cc1cc2c(cc1Nc1ncc3c(n1)n(C14CC(F)(C1)C4)c(=O)n3C)OCO2` [Compound 13, 9-(3-fluorobicyclo[1.1.1]pentan-1-yl)-7-methyl-2-((6-methylbenzo[d][1,3]dioxol-5-yl)amino)-7,9-dihydro-8H-purin-8-one], the IC50 was 1 to 10 nM on DNA-PK (class symbol); at least 1000 nM at ATM (read-out: ATM HTRF 10 μM ATP IC50, class symbol); at least 1000 nM against PI3Kβ; at least 1000 nM in test [1]; at least 1000 nM in test [2].

For `Cc1cc2ncnn2cc1Nc1ncc2c(n1)n(C1CC3CCC1CC3)c(=O)n2C` (stereo not shown) [Compound 42, 9-((1s,4s)-bicyclo[2.2.2]octan-2-yl)-7-methyl-2-((7-methyl-[1,2,4]triazolo[1,5-a]pyridin-6-yl)amino)-7,9-dihydro-8H-purin-8-one], the IC50 on DNA-PK (setting [3]) is under 1 nM; against ATM (class symbol), 10 to 100 nM; against PI3Kβ, 100 to 1000 nM; in test [1], 100 to 1000 nM; in test [2] it was at least 1000 nM.

On to `Cc1cc2c(cc1Nc1ncc3c(n1)n(C1CC4CCC1CC4)c(=O)n3C)OCO2` (stereo not shown) [Compound 43, 9-((1s,4s)-bicyclo[2.2.2]octan-2-yl)-7-methyl-2-((6-methylbenzo[d][1,3]dioxol-5-yl)amino)-7,9-dihydro-8H-purin-8-one], for which the IC50 at DNA-PK (setting [3]) was under 1 nM; at ATM (class symbol) it was 100 to 1000 nM; at PI3Kβ, at least 1000 nM; in test [1], at least 1000 nM; in test [2] it was at least 1000 nM.

In the case of `Cc1cc2ncccc2cc1Nc1ncc2c(n1)n([C@H]1C[C@@H]3CC[C@H]1C3)c(=O)n2C` [Compound 44, 9-((1S,2S,4R)-bicyclo[2.2.1]heptan-2-yl)-7-methyl-2-((7-methylquinolin-6-yl)amino)-7,9-dihydro-8H-purin-8-one], the IC50 on DNA-PK (setting [3]) was under 1 nM; at ATM (class symbol), 1 to 10 nM; against PI3Kβ, 100 to 1000 nM; in test [1], 10 to 100 nM; in test [2], 100 to 1000 nM.

As to `Cc1cc2ncnn2cc1Nc1ncc2c(n1)n([C@H]1C[C@@H]3CC[C@H]1C3)c(=O)n2C` [Compound 45, 9-((1S,2S,4R)-bicyclo[2.2.1]heptan-2-yl)-7-methyl-2-((7-methyl-[1,2,4]triazolo[1,5-a]pyridin-6-yl)amino)-7,9-dihydro-8H-purin-8-one], the IC50 on DNA-PK (setting [3]) was under 1 nM; on ATM (class symbol), 10 to 100 nM; against PI3Kβ, 100 to 1000 nM; in test [1], 100 to 1000 nM; in test [2] it was at least 1000 nM.

With `Cc1cc2c(cc1Nc1ncc3c(n1)n([C@H]1C[C@@H]4CC[C@H]1C4)c(=O)n3C)OCO2` [Compound 46, 9-((1S,2S,4R)-bicyclo[2.2.1]heptan-2-yl)-7-methyl-2-((6-methylbenzo[d][1,3]dioxol-5-yl)amino)-7,9-dihydro-8H-purin-8-one], the IC50 on DNA-PK (setting [3]) is under 1 nM; against ATM (class symbol), 100 to 1000 nM; at PI3Kβ, at least 1000 nM; in test [1], at least 1000 nM; in test [2], at least 1000 nM.

Usually IC50 stands for the concentration needed to halve the response being measured.
